According to PMC9404989, “Design and Evaluation of Short Bovine Lactoferrin-Derived Antimicrobial Peptides against Multidrug-Resistant Enterococcus faecium” (Antibiotics, 2022):
No end group written: not given here.

Columns and labels:
[1] = HPLC retention time on C18 reverse-phase column; type: physicochemical
Excerpt: Table 1 Physical parameters and the minimal inhibitory concentration (µg/mL) of designed peptides against E. faecium. | column: rT ^f (min)

[2] = test system: biofilm genes ace, esp, ebpA, ebpC of E. faecium strain C68; experiment: qPCR of genes associated with biofilm formation; type: cell-based, Enterococcus faecium; details: 0.5× MIC, 30 min, real-time PCR
Description: For the qPCR of genes associated with biofilm formation, we followed an established protocol for RNA isolation and quantitative PCR reactions with minor modifications. We prepared exponential cultures of E. faecium strain C68 adjusted to an OD600 = 0.4 in BHI media from overnight grown cultures. After treating 10 mL of bacterial culture with 0.5× MICs of 5L and 6L for 30 min, we extracted RNA using the RNeasy mini kit (Qiagen, Hilden, Germany) according to the manufacturer’s instructions. Using the primers listed in Supplementary Table S2, we performed cDNA synthesis and quantitative reverse transcription (RT)-PCR as recommended by the manufacturer (Bio-Rad, Hercules, CA, USA). Our qPCR cycling conditions were: 95 °C for 30 s; 40 cycles at 95 °C for 5 s; 55 °C for 30 s; and finished with a melt curve analysis from 65 to 95 °C.

E. faecium D24 = experiment: microbe, parasite or virus in culture; type: cell-based, Enterococcus faecium; details: ampicillin resistant, vancomycin-sensitive isolate
Description: (§1) To determine the MICs of peptides, we used the broth microdilution method described by the Clinical and Laboratory Standards Institute. We made serial dilutions of 10× concentration (10 µL) for each peptide in duplicates in 96-well plates (Cat No. 3595, Corning, New York, NY, USA). We added 90 µL of logarithmic-phase bacteria at 5 × 10^5 CFU/mL (in BHI media) to the peptides and then incubated the plates at 37 °C for 18 h. We measured the OD600 absorbance readings using the Spectra Max i3x spectrophotometer (Molecular Devices, San Jose, CA, USA) and determined the MIC as the peptide concentration that inhibits the growth of bacteria.

E. faecium strain C68 [3] = experiment: microbe, parasite or virus in culture; type: cell-based, Enterococcus faecium; details: strain C68, 18 h
Description: as §1

E. faecium D25 = experiment: microbe, parasite or virus in culture; type: cell-based, Enterococcus faecium; details: ampicillin resistant, vancomycin-sensitive isolate
Description: as §1

E. faecium E007 = experiment: microbe, parasite or virus in culture; type: cell-based, Enterococcus faecium; details: tetracycline-resistant strain
Description: as §1

E. faecium D14 = experiment: microbe, parasite or virus in culture; type: cell-based, Enterococcus faecium; details: ampicillin resistant, vancomycin-sensitive isolate
Description: as §1

E. faecium D29 = experiment: microbe, parasite or virus in culture; type: cell-based, Enterococcus faecium; details: ampicillin resistant, vancomycin-sensitive isolate
Description: as §1

[4] = test system: E. faecium E007 established biofilms; type: cell-based, Enterococcus faecium; details: for concentration killing 50% of live bacteria cells in established biofilms: strain E007, 24 h established biofilms, XTT; for established biomass disrupted: strain E007, at 32 µg/mL; for MBEC50: strain E007, biomass by CV
[5] = test system: E. faecium strain C68 established biofilms; experiment: Confocal microscopy of peptide-treated established biofilms (LIVE/DEAD); type: cell-based, Enterococcus faecium; details: 10× MIC, 24 h established biofilms, 24 h treatment
Description: We prepared exponential cultures of E. faecium strain C68 (adjusted to 1 × 10^6 CFU/mL) in BHI media (supplemented with 0.2% glucose) from overnight grown cultures. To establish biofilms, we added 1 mL of the bacterial culture to the chambers of cuvettes (borosilicate cover glass, Nunc Cat. No. 155380) and maintained them at 37 °C for 24 h under static conditions. We carefully removed the media from the wells after incubation and then washed the wells with PBS (Gibco, MD, USA) to remove loosely attached planktonic cells. We treated the established biofilms in each well with 100 µL of serially diluted 10× MIC peptide solution (5L and 6L) followed by the addition of 900 μL of BHI media (supplemented with 0.2% glucose) and incubated the cuvettes for an additional 24 h at 37 °C. After incubation, we washed the cuvettes carefully with PBS (Gibco, MD, USA) to remove the planktonic cells and stained the biofilms with 10 µL of LIVE/DEAD kit (Molecular Probes, Life Technologies, Eugene, OR, USA) according to the manufacturer’s instructions. Finally, we visualized the biofilms using a confocal microscope (Zeiss 880) and processed the data via Zen 2010 software (Carl Zeiss, Jena, Germany).

E. faecium strain C68 [6] = experiment: microbe, parasite or virus in culture; type: cell-based, Enterococcus faecium; details: strain C68, 18 h; remark: listed apart in the source
Description: as §1
To investigate the activity of peptides in various salt concentrations, we included physiologically relevant salts in the BHI medium.

E. faecium WC176 = experiment: organism not typed; type: cell-based, Enterococcus faecium; details: WC176, 18 h
Description: as §1

Substance	rT (HPLC retention time) [1]	downregulation of ace expression [2]	downregulation of ebpC expression [2]	MIC D24 (E. faecium D24)	MIC EF C68 (E. faecium strain C68 [3])	MIC Media Only (E. faecium strain C68 [3])	MIC D25 (E. faecium D25)	MIC E007 (E. faecium E007)	MIC D14 (E. faecium D14)	MIC D29 (E. faecium D29)	concentration killing 50% of live bacteria cells in established biofilms [4]	established biomass disrupted [4]	MBEC50 [4]	killing of bacteria inside biofilms (confocal, LIVE/DEAD) [5]	MIC + CaCl2 (2.5 mM) (E. faecium strain C68 [6])	MIC + MgSO4 (1 mM) (E. faecium strain C68 [6])	MIC + NaCl (150 mM) (E. faecium strain C68 [6])	MIC + ZnSO4 (8 µM) (E. faecium strain C68 [6])	MIC WC176 (E. faecium WC176)	also measured
RRWLWLRRWLWR-NH2 [Peptide 5L]	17.522 min	8 folds	2 fold	8 µg/mL	4 µg/mL	4 µg/mL	4 µg/mL	4 µg/mL	16 µg/mL	16 µg/mL	8 µg/mL	75%	10 µg/mL	killed most of the bacteria inside the biofilms	16 µg/mL	8 µg/mL	4 µg/mL	4 µg/mL	8 µg/mL	downregulation of ebpA expression [2]: 2 fold; downregulation of esp expression [2]: 4 fold
RRWLWRLRWLWR-NH2 [Peptide 6L]	18.603 min	4 folds	2 fold	8 µg/mL	4 µg/mL	4 µg/mL	4 µg/mL	4 µg/mL	8 µg/mL	8 µg/mL	8 µg/mL	75%	8 µg/mL	killed most of the bacteria inside the biofilms	8 µg/mL	8 µg/mL	4 µg/mL	4 µg/mL	8 µg/mL	–
